Source: article PMC7119063 (Bioorganic & Medicinal Chemistry, 2005)
Entries after “also recorded” stand apart in the source; their conditions may differ.

Assays:
SARS-CoV 3CL protease = SARS-CoV 3CL protease (Severe acute respiratory syndrome coronavirus, UniProt P0C6X7); assay type: biochemical
SARS-CoV [1] = assay type: cell-based
SARS-CoV [2] = settings: cited from earlier work
[3] = system: human rhinovirus (HRV) 3C protease; settings: cited from earlier work

| Structure (SMILES) | inhibitory activity against SARS-CoV 3CL protease (in words) (SARS-CoV 3CL protease) | concentration at which active as anti-SARS agent (protection from CPE) (SARS-CoV [1]) | activity to the SARS-CoV in a cell-based assay (SARS-CoV [2]) | inhibition of HRV 3C protease (in words) [3] | EC50 (SARS-CoV [2]) [nM] |
| --- | --- | --- | --- | --- | --- |
| CCOC(=O)C=CC(CC1CCNC1=O)NC(=O)C(CC(=O)C(NC(=O)c1cc(C)on1)C(C)C)Cc1ccc(F)cc1 (centres unmarked) [Compound 1a, Ethyl 4-[2-(4-fluorobenzyl)-6-methyl-5-(5-methyl-3-isoxazolyl)carbonylamino-1,4-dioxoheptylamino]-5-(2-oxo-3-pyrrolidinyl)-2-pentenoate] | no inhibitory activity; also recorded: inactive | inactive | inactive | potent inhibitor | – |
| CC(C)[C@@H]1NC(=O)[C@H](C)OC(=O)[C@@H](C(C)C)NC(=O)[C@@H](C(C)C)OC(=O)[C@H](C(C)C)NC(=O)[C@H](C)OC(=O)[C@@H](C(C)C)NC(=O)[C@@H](C(C)C)OC(=O)[C@H](C(C)C)NC(=O)[C@H](C)OC(=O)[C@@H](C(C)C)NC(=O)[C@@H](C(C)C)OC1=O [valinomycin] | – | – | – | – | 850 |
